Source: patent US6177469A, “Lipid alcohols as new immunosuppressive and antiviral drugs” (priority 1995, dated 2001)
Read-outs that look alike come from different tables or passages of the source.

Assays:
[1] = cytotoxicity in CEM-SS cells by uptake of TdR-^3H into total DNA; type: cell-based; conditions: human, TdR-^3H uptake into total DNA, read-out: IC50 cytotoxicity
Description: (§1) The cell cytotoxicity and the anti-HIV-1-activity in CEM-SS cells of selected lipid alcohols are stated in table 1.
(§2) The cytotoxicity was determined by uptake of TdR-^3 H into the total DNA at various concentrations of the stated compounds. The anti-HIV 1 activity was determined using a standard plaque assay of a CEM-SS cell monolayer. The differential selectivity results from the quotient of the IC50 and anti-HIV 1 activity concentrations. ND means not determined.

[2] = system: HIV-1; test: anti-HIV-1 activity, standard plaque assay of a CEM-SS cell monolayer; type: cell-based; conditions: for IC50: read-out: IC50 anti-HIV-1; for Diff. selectivity: quotient of cytotoxicity IC50 and anti-HIV 1 IC50
Description: as §1, §2

[3] = Human immunodeficiency virus 1, CEM-SS cell monolayer, plaque assay

SMILES | CC50 [1] | IC50 ([2]; Human immunodeficiency virus 1, CEM-SS) | Diff. selectivity [2] | IC50 [2, 3]
CCCCCCCCCCOC(CO)CSCC(C)CCCCCCCCC (stereo not shown) [3-(2-methyl-undecyl)mercapto-2-decyloxy-1-propanol] | > 100 µM | 51.2 µM | > 1.95 | –
CCCCCCCCCCCCOC(CO)CSCCCCCCCCCCCC (stereo not shown) [3-dodecylmercapto-2-dodecyloxy-1-propanol] | > 100 µM | – | – | > 20 µM
CCCCCCCCCCCCSCC(CO)OCCCCCCCC (stereo not shown) [3-dodecylmercapto-2-octyloxy-1-propanol] | > 90.6 µM | – | > 12.92 | 7.01 µM
CCCCCCCCCCCC[S+]([O-])CC(CO)OCCCCCCCCCC (stereo not shown) [3-dodecylsulfinyl-2-decyloxy-1-propanol] | 36.8 µM | – | 204.22 | 0.18 µM
CCCCCCCCCCCCS(=O)(=O)CC(CO)OCCCCCCCCCC (stereo not shown) [3-dodecylsulfonyl-2-decyloxy-1-propanol] | 32.7 µM | – | 60.52 | 0.54 µM
CCCCCCCCCCCCCCSCC(CO)OCCCCCCCCCC (stereo not shown) [3-tetradecylmercapto-2-decyloxy-1-propanol] | > 100 µM | – | – | > 20 µM
CCCCCCCCCCCOC(CO)CSCCCCCCCCCCC (stereo not shown) [3-undecylmercapto-2-undecyloxy-1-propanol] | > 100 µM | – | > 33.90 | 2.95 µM
